Earlier results on five molecules are cited in patent publication US12133911B2, “Formulations to achieve rapid dissolution of drug from spray-dried dispersions in capsules” (Capsugel Belgium NV, priority 2015, dated 2024).

For the series the following is noted: molality (moles of solute per unit mass) of a saturated solution in water.
For `O=C(CO)[C@@H](O)[C@H](O)[C@H](O)CO` [fructose], the “Water Solub.” value is reported as 3.89 mol/kg.

With `OC[C@@H](O)[C@H](O)[C@@H](O)CO` [xylitol], the “Water Solub.” value was 4.11 mol/kg.

Take `[Cl-].[K+]` [KCl, potassium chloride]: the “Water Solub.” value was 9.40 mol/kg.

`OC[C@@H](O)[C@@H](O)[C@H](O)[C@H](O)CO` [mannitol]: the “Water Solub.” value was 0.99 mol/kg.

Take `OC[C@@H](O)[C@@H](O)[C@H](O)[C@@H](O)CO` [sorbitol]: the “Water Solub.” value was 4.56 mol/kg.
